Data on two compounds can be found in patent US7659292B2 (priority 2001, dated 2010).

The test system of the assay is Phytophthora infestans. Format: in vivo. As to conditions: for Efficacy (obs.)/ %: percentage disease control relative to untreated plants; for Rating: potato plants, spray 200 l/ha, inoculated 24 hours after treatment, degree of infestation.

Read-outs that look alike come from different tables or passages of the source.

With `CCCOC(=O)NCCCN(C)C` [Compound (II), propyl 3-(dimethylamino)propylcarbamate], under “400 g/ha”, the “Efficacy (obs.)/ %” value is given as 0% and the Rating was found to be 8.3. Where the note is “600 g/ha”, the “Efficacy (obs.)/ %” value was 18% and the Rating came out at 6.8.
Turning to `O=C(NCc1ncc(C(F)(F)F)cc1Cl)c1c(Cl)cccc1Cl` [Compound (Ia), 2,6-dichloro-N-{[3-chloro-5-(trifluoromethyl)-2-pyridinyl]methyl}benzamide], the “Efficacy (obs.)/ %” value came to 48% (5 g/ha) and 60% (25 g/ha). The Rating by setting is: (5 g/ha) 4.3; (25 g/ha) 3.3.
